Patent US4997757A, “Process for detecting potential carcinogens” (GeneBioMed, Inc., priority 1988, dated 1991)
Like-named read-outs stand apart in the source and are kept apart here.

Legend:
Salmonella typhimurium = settings: cited from earlier work
[1] = tested on: strain RS112 (his3 deletion alleles); experiment: SCC (sister chromatid conversion) intrachromosomal recombination system, deletion alleles of his3; type: cell-based, Saccharomyces cerevisiae; settings: for SCC/10^4 cells: strain RS112
Source text: (§1) In the most preferred embodiment it is preferable to grow the cells in a medium which selects against the occurrence of the genome rearrangement to keep the control values as low as possible. In the embodiment described in FIG. 1 it is shown that the LEU2 gene of construct 10 is lost after the genome rearrangement which results in construct 22. Therefore cells containing construct 10, before the rearrangement are able to grow in the absence of leucine in the medium, but cells containing construct 22, after the genome rearrangement are not able to grow in the absence of leucine. After the genome rearrangement cells containing construct 22 are able to grow in the absence of histidine in the medium, but cells containing construct 10 before the genome rearrangement are not able to grow in the absence of histidine. Therefore the selection scheme which was used for Example 3 involves growth of the yeast culture in medium lacking leucine but containing histidine before and during the exposure to the potential carcinogens or other test agents. After the exposure the cells which have undergone genome rearrangement are selected on medium lacking histidine but containing leucine.
(§2) It is preferred that, when the cells are to be grown in the presence of the agent, logarithmic phase cultures are used. In one embodiment, for each of the test strains, a cell suspension of 2×10^6 cells per milliliter-LEU medium be prepared from a logarithmic phase culture pregrown in liquid-LEU medium. The whole mix is aliquoted into portions of 5 milliliter into disposable plastic tubes in the presence of the agent to be tested, the tubes are sealed and shaken continuously for 17 hours.
(§3) After the yeast cells have been exposed to both the agent to be tested and the selection medium under the conditions of the test and have been incubated for some time period of about more than one day preferably at 30 degrees Celsius or any other temperature which allows growth of the yeast cells used, the number of colonies formed by cells which have undergone genome rearrangement are counted and compared with the number of colonies of yeast cells identical in substantially every respect with the exception of not having been exposed to the suspected carcinogenic agent. The rates of genome rearrangement for both the control and experimental samples are then compared.
(§4) Plasmids were constructed as substrates to study intrachromosomal recombination; see an earlier part of the specification and Example 1. The plasmids pRS6 (FIG. 7, construct 108) and pRS11 (FIG. 9, construct 118) both contained an internal fragment of the HIS3 gene as well as one selectable marker (LEU2). pRS11 in addition contained the 2 μm origin of replication to select for the presence of the plasmid after plasmid excision. pRS11FRT-had the FLP recombination site disrupted (see Example 1). Yeast strains RSY6 containing construct 10, RSY11 containing construct 118 and RSY11FRT- (see Example 1) were used. They contained the respective pRS plasmids integrated into the HIS3 gene of strain S35/2-10C giving rise to disruptions of the HIS3 gene construct 10 or analogs to it (FIG. 10). The two resulting his3 deletion alleles (FIG. 10) shared about 400 basepairs of homology and thus could interact with each other by homologous recombination. Reversion of his- to HIS+ occurred at a frequency of about 4×10^-4 in all three strains. All of 100 tested HIS+ revertants of strain RSY6 were leu-. Because of this observation strains used for recombination studies were always pregrown on -LEU medium to prevent growth of HIS+ revertants. Therefore the frequency of HIS+ revertants is a measure of the recombination rate.
(§5) The strain used in this example was RS112 which was obtained by crossing strain RSY6 with strain 428. RSY6 contains the SCC system and was deposited at November 30 under "ATCC designation number 20871" with the American Type Culture Collection of 12301 Parklawn Drive, Rockville, Md. 20852. […]

strain RS112 = experiment: survival of yeast exposed to agent; type: cell-based, Saccharomyces cerevisiae; settings: 1020 min
Source text: (§6) It is preferred to conduct a preliminary experiment to determine those concentrations of the agent to be tested which should be evaluated in the main experiment. Yeast cells are exposed to a wide range of concentrations of the agent to be tested to determine its cytotoxicity.
as §2
(§7) The strain used in this example was RS112 which was obtained by crossing strain RSY6 with strain 428. RSY6 contains the SCC system and was deposited at November 30 under "ATCC designation number 20871" with the American Type Culture Collection of 12301 Parklawn Drive, Rockville, Md. 20852. Strain 428 was obtained from M. Snyder, Department of Biology, at Yale University, New Haven, Conn. and was used because it contains the mutation his3Δ-200, the construction of which has been described in an article by Struhl entitled "Naturally occurring poly(dA-dT) sequences are upstream promoter elements of constitutive transcription in yeast, published in Proc. Natl. Acad. Sci. USA 82 on pages 8419-8423. Strains containing the his3Δ-200 mutation are readily available to those skilled in the art.

[2] = in vivo, cited from earlier work
mammalian cells [3] = settings: cited from earlier work
[4] = tested on: strain RS112 (heteroalleles ade2-40 and ade2-101); experiment: ICC (interchromosomal gene conversion) between heteroalleles ade2-40 and ade2-101; type: cell-based, Saccharomyces cerevisiae; settings: for ICC/10^5 cells: strain RS112
Experimental: as §2, §7
Strain RS112 has the following genotype: [drawing 2]
Values for the intrachromosomal recombination system between deletion alleles of his3 are designated as SCC. Also strain RS112 contained heteroallelic mutations in ade2 so that the frequency of interchromosomal gene conversion (ICC) between heteroalleles in a diploid was determined. ICC was measured as recombination between the heteroalleles ade2-40 and ade2-101 by selecting for ADE+. Values obtained are given to compare the performance of the two systems.
The frequencies for ICC are given in events per 10^5 survivals, and the frequencies for SCC are given in events per 10^4 survivals. It has to be noted that for sister chromatid recombination in mammalian cells the increase even with potent carcinogens is usually less than ten fold and also slight increases have been taken as positive results. For instance an increase in frequency of two fold has been taken to be significant; see a publication by Rudiger et al. entitled "Metabolites of diethylstilbestrol induce sister chromatid exchange in human cultured fibroblasts." published in Nature 281:392-394).

mammalian cells [5] = settings: cited from earlier work; remark: listed apart in the source
mice = settings: cited from earlier work
[6] = SCC (sister chromatid conversion) intrachromosomal recombination system, deletion alleles of his3; type: cell-based, Saccharomyces cerevisiae; settings: yeast strain rs112; versus untreated control; read-out: induction for SCC / increase in SCC
Source text: as §1, §2, §3, §4, §5

[7] = survival of yeast exposed to agent; type: cell-based, Saccharomyces cerevisiae
Source text: as §6, §2, §7

Structure (SMILES): Cc1c(N)c(=O)n(-c2ccccc2)n1C [Aminoantipyrine]
- Ames Assay result (Salmonella typhimurium): negative
- SCC/10^4 cells ([1]; 10 mg/ml): 1.02 /10^4 cells
- SCC/10^4 cells ([1]; 20 mg/ml): 1.80 /10^4 cells
- SCC/10^4 cells ([1]; 40 mg/ml): 25.8 /10^4 cells
- survival (strain RS112; 10 mg/ml): 97%
- survival (strain RS112; 20 mg/ml): 73.3%
- survival (strain RS112; 40 mg/ml): 0.89%
- carcinogenicity [2]: known carcinogens
- SCE assay result (mammalian cells [3]): negative
- ICC/10^5 cells ([4]; 10 mg/ml): 0.75 /10^5 cells
- ICC/10^5 cells ([4]; 20 mg/ml): 1.8 /10^5 cells
- chromosomal aberration assay result (mammalian cells [5]): negative
- carcinogenicity (mice): bladder carcinogen

Structure (SMILES): CCOS(C)(=O)=O [EMS, ethyl methanesulphonate]
- fold induction [6]: 20 to 150
- SCC result in words [1]: inducible
- SCC/10^4 cells ([1]; 0.02 %): 4.1 /10^4 cells
- SCC/10^4 cells ([1]; 0.1 %): 18.1 /10^4 cells
- SCC/10^4 cells ([1]; 0.2 %): 25.3 /10^4 cells
- viability at 17 h ([7]; yeast strain rs112, 0.02 %): 98%
- viability at 17 h ([7]; yeast strain rs112, 0.1 %): 91%
- viability at 17 h ([7]; yeast strain rs112, 0.2 %): 37%
- ICC result in words [4]: inducible
- ICC/10^5 cells ([4]; 0.02 %): 1.3 /10^5 cells
- ICC/10^5 cells ([4]; 0.1 %): 15.8 /10^5 cells
- ICC/10^5 cells ([4]; 0.2 %): 28.9 /10^5 cells

Structure (SMILES): CCSCC[C@H](N)C(=O)O [Ethionine]
- Ames Assay result (Salmonella typhimurium): negative
- SCC/10^4 cells ([1]; 10 mg/ml): 4.8 /10^4 cells
- SCC/10^4 cells ([1]; 20 mg/ml): 5.4 /10^4 cells
- viability at 17 h ([7]; yeast strain rs112, 10 mg/ml): 79%
- viability at 17 h ([7]; yeast strain rs112, 20 mg/ml): 67%
- carcinogenicity [2]: liver carcinogen
- carcinogenicity ([2]; listed as ethionine): known carcinogens
- SCE assay result (mammalian cells [3]): negative
- ICC/10^5 cells ([4]; 10 mg/ml): 0.77 /10^5 cells
- ICC/10^5 cells ([4]; 20 mg/ml): 0.80 /10^5 cells
- chromosomal aberration assay result (mammalian cells [5]): negative

Structure (SMILES): COS(C)(=O)=O [MMS, methyl methane sulphonate]
- fold induction [6]: 20 to 150
- SCC result in words [1]: inducible
- SCC/10^4 cells ([1]; 0.001 %): 3.9 /10^4 cells
- SCC/10^4 cells ([1]; 0.005 %): 11.4 /10^4 cells
- SCC/10^4 cells ([1]; 0.01 %): 46.6 /10^4 cells
- SCC/10^4 cells ([1]; 0.02 %): 129 /10^4 cells
- viability at 17 h ([7]; yeast strain rs112, 0.001 %): 100%
- viability at 17 h ([7]; yeast strain rs112, 0.005 %): 97%
- viability at 17 h ([7]; yeast strain rs112, 0.01 %): 87%
- viability at 17 h ([7]; yeast strain rs112, 0.02 %): 35%
- ICC result in words [4]: inducible
- ICC/10^5 cells ([4]; 0.001 %): 1.9 /10^5 cells
- ICC/10^5 cells ([4]; 0.005 %): 14.4 /10^5 cells
- ICC/10^5 cells ([4]; 0.01 %): 42.3 /10^5 cells
- ICC/10^5 cells ([4]; 0.02 %): 62 /10^5 cells

Structure (SMILES): O=[N+]([O-])c1cc[n+]([O-])c2ccccc12 [NQO, 4-nitroquinoline-N-oxide]
- fold induction [6]: 20 to 150
- SCC result in words [1]: inducible
- SCC/10^4 cells ([1]; 0.1 μg/ml): 16.9 /10^4 cells
- SCC/10^4 cells ([1]; 0.5 μg/ml): 19.0 /10^4 cells
- SCC/10^4 cells ([1]; 2 μg/ml): 55.6 /10^4 cells
- viability at 17 h ([7]; yeast strain rs112, 0.1 μg/ml): 84%
- viability at 17 h ([7]; yeast strain rs112, 0.5 μg/ml): 74%
- viability at 17 h ([7]; yeast strain rs112, 2 μg/ml): 13.3%
- ICC result in words [4]: inducible
- ICC/10^5 cells ([4]; 0.1 μg/ml): 57.4 /10^5 cells
- ICC/10^5 cells ([4]; 0.5 μg/ml): 93 /10^5 cells
- ICC/10^5 cells ([4]; 2 μg/ml): 106 /10^5 cells

Structure (SMILES): CCOC(N)=O [Urethane]
- Ames Assay result (Salmonella typhimurium): negative
- SCC/10^4 cells ([1]; 10 mg/ml): 1.9 /10^4 cells
- SCC/10^4 cells ([1]; 20 mg/ml): 4.8 /10^4 cells
- SCC/10^4 cells ([1]; 40 mg/ml): 5.3 /10^4 cells
- viability at 17 h ([7]; yeast strain rs112, 10 mg/ml): 107%
- viability at 17 h ([7]; yeast strain rs112, 20 mg/ml): 51%
- viability at 17 h ([7]; yeast strain rs112, 40 mg/ml): 10%
- carcinogenicity [2]: known carcinogens
- SCE assay result (mammalian cells [3]): negative
- ICC/10^5 cells ([4]; 10 mg/ml): 0.66 /10^5 cells
- ICC/10^5 cells ([4]; 20 mg/ml): 0.40 /10^5 cells
- ICC/10^5 cells ([4]; 40 mg/ml): 0.78 /10^5 cells
- chromosomal aberration assay result (mammalian cells [5]): negative
- carcinogenicity (mice): very effective in producing lung as well as skin tumors in mice

Structure (SMILES): C=CCc1ccc(O)c(OC)c1 [eugenol]
- SCC result in words [1]: test positive
